Consider one compound from patent US20030134779A1, “Method and composition for treatment and/or prevention of antibiotic-resistant microorganism infections” (priority 2002, published 2003).

SMILES strings stand for the structures.

What all share (assay type): cell-based, Staphylococcus aureus
One experiment deals with S. aureus PC-1. Briefly: Bacterial growth in MHB. As to the method: (§1) The effect of LF or LFC at concentration sub-MICs alone or in combination with sub-MICs of antibiotics on bacterial growth rate of S. aureus, E. coli and K. pneumoniae was determined by monitoring bacterial cultures in MHB with the O.D.600 nm or by the count of colony forming unit per ml (cfu/ml). A volume of 2.5 ml of overnight cultures in MHB adjusted to 0.5-1 McFarland standard in saline were used to inoculate a final volume of 25 ml of fresh MHB containing the desired concentration of tested compounds. All flasks were then incubated at 37° C. with agitation (200 rpm) for 9 h. Aliquots were removed every hour to determine the culture turbidity using the spectrophotometer Philips PU 8800 (Pye Unican Ltd, Cambridge, UK). The combined antibiotic effect on bacterial growth was also determined using concentrations of LF in the presence of different concentrations of antibiotics. Briefly, a volume of 3 ml of fresh MHB containing desired concentration of drugs was adjusted to an optical density of 0.4 at 540 nm after an overnight culture. The culture was then incubated at 37° C with agitation (200 rpm). After incubation, aliquots were removed to determine the culture turbidity (OD540nm) or cfu/ml. To determine the influence of the level of iron on of the growth inhibition by the test compound, 5 μM of FeCl3 were added to the media.

The subject of experiment [1] is S. aureus ATCC 25923. Briefly: Bacterial growth in MHB. As to the method: as §1
The test system of experiment [2] is S. aureus ATCC 25923. The experiment in a line: Cell morphology by transmission electron microscopy. As to the method: Bacterial cells were grown overnight on MHA or MHB containing sub-MICs of penicillin G with or without LF or LFC. Microorganisms were prepared for transmission electron microscopy by fixation with glutaraldehyde followed by ferritin labelling. This method allows good- preservation of capsular material. Briefly, bacterial cells grown in the presence or absence of antibiotics were fixed in cacodylate buffer (0.1 M, pH 7.0) containing 5% (v/v) glutaraldehyde, for 2 h at 20° C. Fixed microorganims were suspended in cacodylate buffer and allowed to react with the polycationic ferritin (Sigma Chemicals, St-Louis, Mo.; final concentration 1.0 mg/ml) for 30 min at 20° C. The reaction was slowed down by 10-fold dilution with buffer, and the microorganisms were centrifuged and washed three times in cacodylate buffer. Bacterial cells were then immobilized in 4% (w/v) agar, washed 5 times in cacodylate buffer and post-fixed with 2% (w/v) osmium tetroxide for 2 h. Washings were repeated as above, and the samples dehydrated in a graded series of acetone washes. Samples were then washed twice in propylene oxide and embedded in Spurr low-viscosity resin. Thin sections were post-stained with uranyl acetate and lead citrate and examined with an electron microscope (Philips 201) at an accelerating voltage of 60 kV.

The test system of a further experiment is S. aureus strains. Briefly: MIC / FIC determination, summary over strains. The following applies: with 0.5 mg/ml LF; all tested strains except ATCC 25923 and SHY97-3906 (needed 1 mg/ml LF). The text has this: Staphylococcus aureus strains ATCC 25923 and 6538 and Escherichia coli ATCC 25922 were obtained from the American Type Culture Collection. Eight bovine mastitis clinical isolates of S. aureus (SHY97-3906, -3923, -4085 -4242, -4320 and -4343, RFT-1 and RFT-5) and one isolate of E. coli SHY97-3923-2 and one isolate of Kiebsiella pneumoniae SHY99-723-1 were kindly provided by the Laboratoire Provincial de Pathologie Animale of St-Hyacinthe and of Rock-Forest (Quebec, Canada), respectively. Nine β-lactam antibiotics resistant S. aureus strains (PC-1, NCTC 9789, 2076, 22260, ST79/741, 3804, RN9, FAR8, and FAR10) were obtained from Vanderbilt University School of Medicine (Nashville, Tenn., USA). […]
The MICs were determined by both macrodilution (1 ml/tube) and microdilution (100 μl/well) in sterile 96 well microtiter plates (International Nunc, Napierville, Ill.) techniques in three separate experiments according to the National Committee for Clinical Laboratory Standards (1992 and 1999) in three separate experiments. […] Effect of LF combination with antibiotic on MICs were determined by adding 0.5 mg or 1 mg/ml of LF to each antibiotic dilution. […] Effect of LF or LFC combination with antibiotic on MIC was also determined by checkerboard method using 96 well microtiter plates. […] The fractional inhibitory concentration (FIC) was calculated as described by Eliopoulos and Moellering (1991). […]

Where [3] appears, read: sub-MIC penicillin G (1/4 to 1/16 MIC) with 1 mg/ml LF, P<0.01.

Consider `CC1(C)S[C@@H]2[C@H](NC(=O)Cc3ccccc3)C(=O)N2[C@H]1C(=O)O` [penicillin G, Penicillin G], for which the growth entry in the experiment with S. aureus PC-1 (penicillin G combined with 64 μg/ml LFC (⅛ MIC)) and in the experiment with S. aureus ATCC 25923 [1] (penicillin G combined with 32 μg/ml LFC (⅛ MIC)) was “Complete growth inhibition” throughout. In addition, the figures for the growth rate result in the experiment on S. aureus PC-1 (sub-MIC of penicillin G alone), with S. aureus PC-1 (setting [3]) and in the experiment with S. aureus ATCC 25923 [1] (setting [3]) were “did not significantly affect growth rate”, “important growth rate reductions” and “important growth rate reductions”, respectively. Besides, the cell morphology entry in the experiment with S. aureus ATCC 25923 [2] (penicillin G 0.0078 μg/ml alone, 18-h) was “induced formation of large symmetrically arranged pseudomulticellular staphylococci”; with S. aureus ATCC 25923 [2] (penicillin G 0.0078 μg/ml with LF 9.1 μg/ml), “asymmetrically arranged pseudomulticellular staphylococci were formed”. For the same compound, the “increase of inhibitory activity of penicillin” value in the experiment with S. aureus strains is reported as “two-fold”.
